Experimental data as given in US7109186B2 (Bristol-Myers Squibb Company, priority 2002, dated 2006).

Target: T1, HIV-integrase (Human immunodeficiency virus type 1 group M subtype B, UniProt P04585)
T1 construct: 0.26 ng of recombinant integrase was incubated with the beads for 90 min at 37 C
Assay: HIV integrase SPA integration assay (biotin-labeled substrate DNA on streptavidin SPA beads, P33-labeled target DNA)
Type: biochemical
Conditions: percent inhibition of HIV-integrase in the presence of 20 μM of compound
Procedure: For each reaction, 5 pmole of biotin labeled substrate DNA was bound to 100 ug of Streptavidin coated PVT SPA beads (Amersham Pharmacia Biotech). 0.26 ng of recombinant integrase was incubated with the beads for 90 min at 37 C. Unbound enzyme was removed by washing the complex followed by addition of inhibitors and 0.1 fmol of P33 labeled target DNA. Reaction was stopped by adding EDTA to a final concentration of 10 mM. Samples were counted in TopCountNXT (Packard) and the CPM was used as a measure of integration. Reaction condition was as described in A. Engelman and R. Craigie, J. Virol. 69, 5908–5911 (1995). The sequences of substrate and target DNA were described in Nucleic Acid Research 22, 1121–1122 (1994).

Row | SMILES | inhibition at 20 µM [%]
1 | CN(Cc1ccc(Cl)c(Cl)c1)C(=O)C1=C(O)C(=O)N(CCN2CCCCC2)C1 [Compound 26, 4-Hydroxy-5-oxo-1-(2-piperidin-1-yl-ethyl)-2,5-dihydro-1H-pyrrole-3-carboxylic acid (3,4-dichloro-benzyl)-methyl-amide] | 99.9
2 | CN(Cc1ccc(Cl)c(Cl)c1)C(=O)C1=C(O)C(=O)N(Cc2ccc(Cl)c(Cl)c2)C1 [Compound 19, 1-(3,4-Dichloro-benzyl)-4-hydroxy-5-oxo-2,5-dihydro-1H-pyrrole-3-carboxylic acid (3,4-dichloro-benzyl)-methyl-amide] | 99.9
3 | CCN1CCCC1CN1CC(C(=O)N(C)Cc2ccc(Cl)c(Cl)c2)=C(O)C1=O (stereo not drawn) [Compound 22, 1-(1-Ethyl-pyrrolidin-2-ylmethyl)-4-hydroxy-5-oxo-2,5-dihydro-3-carboxylic acid (3,4-dichloro-benzyl)-methyl-amide] | 99.9
4 | COC(=O)c1ccc(CN2CC(C(=O)N(C)Cc3ccc(Cl)c(Cl)c3)=C(O)C2=O)cc1 [Compound 41, 4-{4-[(3,4-Dichloro-benzyl)-methyl-carbamoyl]-3-hydroxy-2-oxo-2,5-dihydro-pyrrol-1-ylmethyl}-benzoic acid methyl ester] | 99.9
5 | CN(Cc1ccc(F)cc1)C(=O)C1=C(O)C(=O)N(CCc2ccc(Cl)cc2Cl)C1 [Compound 6, 1-[2-(2,4-Dichloro-phenyl)-ethyl]-4-hydroxy-5-oxo-2,5-dihydro-1H-pyrrole-3-carboxylic acid (4-fluoro-benzyl)-methyl-amide] | 99.9
6 | CCOP(=O)(CCN1CC(C(=O)N(C)Cc2ccc(Cl)c(Cl)c2)=C(O)C1=O)OCC [Compound 23-A, (2-[4-[(3,4-Dichloro-benzyl)-methyl-carbamoyl]-3-hydroxy-2-oxo-2,5-dihydro-pyrrol-1-yl]-ethyl)-phosphonic acid diethyl ester] | 99.9
7 | CN(Cc1ccc(Cl)c(Cl)c1)C(=O)C1=C(O)C(=O)N(CCC(N)=O)C1 [Compound 40, 1-(2-Carbamoyl-ethyl)-4-hydroxy-5-oxo-2,5-dihydro-1H-pyrrole-3-carboxylic acid (3,4-dichloro-benzyl)-methyl-amide] | 99.9
8 | CN1CC(C(=O)N(C)Cc2ccc(Cl)c(Cl)c2)=C(O)C1=O [Compound 12, 4-Hydroxy-1-methyl-5-oxo-2,5-dihydro-1H-pyrrole-3-carboxylic acid (3,4-dichloro-benzyl)-methyl amide] | 99.9
9 | CN(Cc1ccc(Cl)c(Cl)c1)C(=O)C1=C(O)C(=O)N(CCNC(=O)CCN2CCOCC2)C1 [Compound 38, 4-Hydroxy-1-[2-(3-morpholin-4-yl-propionylamino)-ethyl]-5-oxo-2,5-dihydro-1H-pyrrole-3-carboxylic acid (3,4-dichloro-benzyl)-methyl-amide] | 99.9
10 | CN1CC(C(=O)N(C)Cc2ccc(F)cc2)=C(O)C1=O [Compound 1, 4-Hydroxy-1-methyl-5-oxo-2,5-dihydro-1H-pyrrole-3-carboxylic acid (4-fluoro-benzyl)-methyl amide] | 99.9
11 | CC(=O)NCCN1CC(C(=O)N(C)Cc2ccc(Cl)c(Cl)c2)=C(O)C1=O [Compound 27] | 99.9
12 | CN(Cc1ccc(F)cc1)C(=O)C1=C(O)C(=O)N(CCc2ccc(Cl)cc2)C1 [Compound 2, 1-[2-(4-Chloro-phenyl)ethyl]-4-hydroxy-5-oxo-2,5-dihydro-1H-pyrrole-3-carboxylic acid (4-fluoro-benzyl)-methyl amide] | 99.9
13 | CN(Cc1ccc(Cl)c(Cl)c1)C(=O)C1=C(O)C(=O)N(CCCn2ccnc2)C1 [Compound 30, 4-Hydroxy-1-(3-imidazol-1-yl-propyl)-5-oxo-2,5-dihydro-1H-pyrrole-3-carboxylic acid (3,4-dichloro-benzyl)-methyl-amide] | 99.9
14 | CN1CC(C(=O)N(C)Cc2ccccc2)=C(O)C1=O [Compound 79, 4-Hydroxy-1-methyl-5-oxo-2,5-dihydro-1H-pyrrole-3-carboxylic acid benzyl-methyl-amide] | 92.4
15 | CON(C(=O)C1=C(O)C(=O)N(C)C1)C(c1ccc(F)cc1)c1ccc(F)cc1 [Compound 73, 4-Hydroxy-1-methyl-5-oxo-2,5-dihydro-1H-pyrrole-3-carboxylic acid [bis-(4-fluoro-phenyl)-methyl]-methoxy-amide] | 10
16 | CN(Cc1ccc(Cl)c(Cl)c1)C(=O)C1=C(O)C(=O)N(Cc2cccs2)C1 [Compound 31] | 99.9
17 | CN(Cc1ccc(Cl)c(Cl)c1)C(=O)C1=C(O)C(=O)N(CCC(=O)NCCC(=O)O)C1 [Compound 37, 3-(3-{4-[(3,4-Dichloro-benzyl)-methyl-carbamoyl]-3-hydroxy-2oxo-2,5-dihydro-pyrrol-1-yl}-propionylamino)-propionic acid] | 99.9

Row | SMILES | inhibition at 20 µM [%]
18 | CN(Cc1ccc(Cl)c(Cl)c1)C(=O)C1=C(O)C(=O)N(C(CC(N)=O)C(=O)O)C1 (stereo not drawn) [Compound 25, 2-{4-[(3,4-Dichloro-benzyl)-methyl-carbamoyl]-3-hydroxy-2-oxo-2,5-dihydro-pyrrol-1-yl}-succinamic acid] | 99.9
19 | CN1CC(C(=O)N(Cc2ccc(Cl)cc2)Cc2ccc(Cl)c(Cl)c2)=C(O)C1=O [Compound 77, 4-Hydroxy-1-methyl-5-oxo-2,5-dihydro-1H-pyrrole-3-carboxylic acid (4-chloro-benzyl)-(3,4-dichloro-benzyl)-amide] | 99.8
20 | CN(Cc1ccc(F)cc1)C(=O)C1=C(O)C(=O)N(CCCc2ccccc2)C1 [Compound 10, 4-Hydroxy-5-oxo-1-(3-phenyl-propyl)-2,5-dihydro-1H-pyrrole-3-carboxylic acid (4-fluoro-benzyl)-methyl-amide] | 99.9
21 | CN(Cc1ccc(Cl)c(Cl)c1)C(=O)C1=C(O)C(=O)N(Cc2ccc(C(=O)O)cc2)C1 [Compound 36, 4-{4-[(3,4-Dichloro-benzyl)-methyl-carbamoyl]-3-hydroxy-2: oxo-2,5-dihydro-pyrrol-1-ylmethyl}-benzoic acid] | 92
22 | CN(Cc1ccc(F)cc1)C(=O)C1=C(O)C(=O)N(CCc2ccccc2F)C1 [Compound 5, 1-[2-(2-Fluoro-phenyl)-ethyl]-4-hydroxy-5-oxo-2,5-dihydro-1H-pyrrole-3-carboxylic acid (4-fluoro-benzyl)-methyl-amide] | 99.8
23 | CN(Cc1ccc(F)cc1)C(=O)C1=C(O)C(=O)N(CCc2ccccc2)C1 [Compound 8, 4-Hydroxy-5-oxo-1-phenethyl-2,5-dihydro-1H-pyrrole-3-carboxylic acid (4-fluoro-benzyl)-methyl-amide] | 99.9
24 | CN(Cc1ccc(Cl)c(Cl)c1)C(=O)C1=C(O)C(=O)N(CCCC(=O)O)C1 [Compound 24, 4-{4-[(3,4-Dichloro-benzyl)-methyl-carbamoyl]-3-hydroxy-2-oxo-2,5-dihydro-pyrrol-1-yl}-butyric acid] | 99.9
25 | CN(Cc1ccc(Cl)c(Cl)c1)C(=O)C1=C(O)C(=O)N(CC(C)(C)C)C1 [Compound 16, 1-(2,2-Dimethyl-propyl)-4-hydroxy-5-oxo-2,5-dihydro-1H-pyrrole-3-carboxylic acid (3,4-dichloro-benzyl)-methyl-amide] | 99.9
26 | CN1CCN(CCN2CC(C(=O)N(C)Cc3ccc(Cl)c(Cl)c3)=C(O)C2=O)CC1 [Compound 32, 4-Hydroxy-1-[2-(4-methyl-piperazin-1-yl)-ethyl]-5-oxo-2,5-dihydro-1H-pyrrole-3-carboxylic acid (3,4-dichloro-benzyl)-methyl-amide] | 99.9
27 | CN(Cc1ccc(Cl)c(Cl)c1)C(=O)C1=C(O)C(=O)N(CCc2ccc(S(N)(=O)=O)cc2)C1 [Compound 17, 4-Hydroxy-5-oxo-1-[2-(4-sulfamoyl-phenyl)-ethyl]-2,5-dihydro-1H-pyrrole-3-carboxylic acid (3,4-dichloro-benzyl)-methyl-amide] | 99.9
28 | CC(C)N1CC(C(=O)N(C)Cc2ccc(F)cc2)=C(O)C1=O [Compound 11, 4-Hydroxy-1-isopropyl-5-oxo-2,5-dihydro-1H-pyrrole-3-carboxylic acid (4-fluoro-benzyl)-methyl-amide] | 99.9
29 | COC(=O)CCN1CC(C(=O)N(C)Cc2ccc(Cl)c(Cl)c2)=C(O)C1=O [Compound 34, 3-{4-[(3,4-Dichloro-benzyl)-methyl-carbamoyl]-3-hydroxy-2-oxo-2,5-dihydro-pyrrol-1-yl}-propionic acid methyl ester] | 99.9
30 | CN(Cc1ccc(Cl)c(Cl)c1)C(=O)C1=C(O)C(=O)N(CCP(=O)(O)O)C1 [Compound 23, (2-{4-[(3,4-Dichloro-benzyl)-methyl-carbamoyl]-3-hydroxy-2-oxo-2,5-dihydro-pyrrol-1-yl}-ethyl)-phosphonic acid] | 99.9
31 | CN(Cc1ccc(Cl)c(Cl)c1)C(=O)C1=C(O)C(=O)N(CCC#N)C1 [Compound 42, 1-(2-Cyano-ethyl)-4-hydroxy-5-oxo-2,5-dihydro-1H-pyrrole-3carboxylic acid (3,4-dichloro-benzyl)-methyl-amide] | 99.9
32 | CN(Cc1ccc(F)cc1)C(=O)C1=C(O)C(=O)N(CCc2cccs2)C1 [Compound 4, 4-Hydroxy-5-oxo-1-(2-thiophen-2-yl-ethyl)-2,5-dihydro-1H-pyrrole-3-carboxylic acid (4-fluoro-benzyl)-methyl-amide] | 99.9
33 | CN(Cc1ccc(Cl)c(Cl)c1)C(=O)C1=C(O)C(=O)N(CCC(=O)NC(Cc2cncn2C)C(=O)O)C1 (stereo not drawn) [Compound 29] | 99.9
